Assay results reported in paper PMC5962653 (Frontiers in Microbiology, 2018).
In brackets after ≈: the same amount, converted by molar mass. Positions of bridges follow the written chain, without caps; N, C: chain ends. Non-standard residues stand in square brackets, D forms with d. Residues, ends and D or L forms follow the SMILES beside them. *: point of attachment. X1 = CC[C@H](C)CCCCC(=O)*; Dab = NCC[C@H](N)C(=O)O

Assays:
Type in all cases: cell-based, Klebsiella pneumoniae
[1] = system: K. pneumoniae VIM-1 producer (colistin-susceptible); test: In vitro selection of colistin-resistant mutants (time-kill curves); conditions: exposure at the MIC (0.5 mg/L) during 24 h in time-kill curves; sub-cultured twice antimicrobial free; increased from 0.5 mg/L
Protocol: (§1) MICs determinations of colistin and rifampin were carried out in triplicate.

[2] = system: K. pneumoniae OXA-48 plus CTX-M-15 producer (colistin-susceptible); test: as above; conditions: exposure at the MIC (0.5 mg/L) during 24 h in time-kill curves; sub-cultured twice antimicrobial free; increased from 0.5 mg/L
Protocol: as §1

[3] = system: K. pneumoniae Kp21, VIM-1/DHA-1 producer; test: MIC by broth microdilution (agar dilution for fosfomycin); conditions: for MIC: broth microdilution
Description: (§2) Four genetically unrelated clinical isolates of CP-Kp were studied: Kp07, a VIM-1 ST 1603 clone producer ([Miro et al., 2013]); Kp21, which co-produced VIM-1 and the acquired AmpC type beta-lactamase DHA-1 ST 11 clone ([Miro et al., 2013]); Kp28, co-producing OXA-48 ST11 clone and the extended spectrum beta-lactamase (ESBL) CTX-M-15 ([Oteo et al., 2015]); and Kp29, co-producing KPC-3 ST512 clone with the broad spectrum beta-lactamases TEM-1 and SHV-11 ([Lopez-Cerero et al., 2014]), thereinafter VIM-1, VIM-1/DHA-1, OXA-48 plus CTX-M-15, and KPC-3 producers, respectively. Identification of these isolates was confirmed by a Microflex LT-MALDI Biotyper mass spectrometer (Bruker Daltonics GmbH, Bremen, Germany). The presence of carbapenemase genes, and genes coding for other beta-lactamases was confirmed by PCR and sequencing as described previously. The absence of genetic relation among the isolates was confirmed by PFGE analysis of chromosomal restriction fragments obtained after XbaI cleavage following the criteria of [Tenover et al. (1995)]. […] The antibiotic susceptibility profiles are included in the Supplementary Information.
(§3) MICs of antibiotics were determined by broth microdilution as recommended by the [Clinical and Laboratory Standards Institute [CLSI] (2012)], using Mueller Hinton broth II (MHB) (Becton Dickinson & Co., Sparks, MD, United States) and agar dilution method for fosfomycin. MIC results were interpreted according to the [European Committee on Antimicrobial Susceptibility Testing [EUCAST] (2016)]^1 breakpoints. Studies were performed in triplicate.

[4] = system: K. pneumoniae Kp28, OXA-48 plus CTX-M-15 producer; test: as above; conditions: for MIC: broth microdilution
Description: as §2, §3

[5] = system: K. pneumoniae Kp07, VIM-1 producer; test: as above; conditions: for MIC: broth microdilution
Description: as §2, §3

[6] = system: K. pneumoniae Kp29, KPC-3 producer; test: as above; conditions: for MIC: broth microdilution
Description: as §2, §3

[7] = system: K. pneumoniae KPC-3 producer; conditions: colistin 2 mg/L (EUCAST breakpoint), rifampin 2 mg/L, alone or combined; inoculum 1 × 10^6 cfu/mL, 37°C, samples 0-24 h; three experiments
Protocol: (§4) (2016)]. […] Tubes were incubated at 37°C, with shaking, and samples were taken at 0, 1, 3, 6, and 24 h, serially diluted and plated using a spiral platter (Eddy Jet, IUL S.A., Barcelona, Spain). Bacterial colonies were counted using an automatic counter (Flash & Go, IUL S.A., Barcelona, Spain) ([Pournaras et al., 2011]; [Souli et al., 2011]). Experiments were performed three times on separate occasions. […] Bactericidal activities of single antibiotics or combination were defined as a decrease ≥ 3 log10 cfu/mL from the starting inoculum ([Souli et al., 2009]). Studies were performed in triplicate.
(§5) The RIF concentration used for all strains was 2 mg/L. RIF, filled circles; CST, filled squares; combination of both antimicrobials, filled triangles.

[8] = system: K. pneumoniae OXA-48 plus CTX-M-15 producer; conditions: at 24 h; colistin 0.5 mg/L
Protocol: as §4, §5

[9] = system: K. pneumoniae VIM-1 producer
Protocol: as §4, §5

[10] = system: K. pneumoniae VIM-1/DHA-1 producer; conditions: colistin 2 mg/L (EUCAST breakpoint), rifampin 2 mg/L, alone or combined; inoculum 1 × 10^6 cfu/mL, 37°C, samples 0-24 h; three experiments
Protocol: as §4, §5

[11] = Table 1, Mueller Hinton broth II, CLSI, triplicate

Which results are given for `CC[C@H](C)CCCCC(=O)N[C@@H](CCN)C(=O)N[C@H](C(=O)N[C@@H](CCN)C(=O)N[C@H]1CCNC(=O)[C@H]([C@@H](C)O)NC(=O)[C@H](CCN)NC(=O)[C@H](CCN)NC(=O)[C@H](CC(C)C)NC(=O)[C@@H](CC(C)C)NC(=O)[C@H](CCN)NC1=O)[C@@H](C)O` [Colistin, colistin] (X1-[Dab]T[Dab][Dab][Dab][dL]L[Dab][Dab]T; lactam 4-C (inferred); N-terminus assumed)?
Colistin MIC of colonies recovered after exposure to colistin [1]: > 8 µg/mL; Colistin MIC of colonies recovered after exposure to colistin [2]: > 8 µg/mL; MIC [3, 11]: 64 [^∗∗] mg/L; SIR, classification according to EUCAST definitions ([3]; supplement table, strain KPc21, EUCAST 2016 breakpoints, fosfomycin by agar dilution): R; MIC ([3]; supplement table, strain KPc21): > 32 mg/L; MIC [4, 11]: 0.5 [^∗] mg/L; SIR, classification according to EUCAST definitions ([4]; supplement table, strain KPc28, EUCAST 2016 breakpoints, fosfomycin by agar dilution): S; MIC ([4]; supplement table, strain KPc28): 0.5 mg/L (≈ 0.428 µM); MIC [5, 11]: 0.5 [^∗] mg/L; SIR, classification according to EUCAST definitions ([5]; supplement table, strain KPc07, EUCAST 2016 breakpoints, fosfomycin by agar dilution): S; MIC ([5]; supplement table, strain KPc07): 0.5 mg/L (≈ 0.428 µM); MIC [6, 11]: 32 [^∗∗] mg/L; SIR, classification according to EUCAST definitions ([6]; supplement table, strain KPc29, EUCAST 2016 breakpoints, fosfomycin by agar dilution): R; MIC ([6]; supplement table, strain KPc29): > 32 mg/L; Bactericidal activity in time-kill curves (decrease ≥ 3 log10 cfu/mL from the starting inoculum) [7]: did not display any bactericidal activity; Regrowth in time-kill curves [8]: important regrowth at 24 h; Regrowth in time-kill curves ([9]; at 24 h, colistin 0.5 mg/L): important regrowth at 24 h; Bactericidal activity in time-kill curves (decrease ≥ 3 log10 cfu/mL from the starting inoculum) ([9]; colistin 0.5 mg/L (MIC), rifampin 2 mg/L, alone or combined, inoculum 1 × 10^6 cfu/mL, 37°C, samples 0-24 h, three experiments): bactericidal at 3 h; Bactericidal activity in time-kill curves (decrease ≥ 3 log10 cfu/mL from the starting inoculum) [10]: did not display any bactericidal activity
